In patent publication US9290485B2, “N-((6-amino-pyridin-3-yl)methyl)-heteroaryl-carboxamides” (NOVARTIS AG, priority 2010, dated 2016):
pIC50: −log10 of the molar value.

The compounds below were run against T1, human plasma kallikrein (Homo sapiens (Human), UniProt P03952) (assay: not given). Conditions: human plasma kallikrein 25 pM, substrate 0.5 uM, 1 hour pre-incubation at room temperature, read at t=60 min.
T1 sequence (P03952 whole entry, looked up): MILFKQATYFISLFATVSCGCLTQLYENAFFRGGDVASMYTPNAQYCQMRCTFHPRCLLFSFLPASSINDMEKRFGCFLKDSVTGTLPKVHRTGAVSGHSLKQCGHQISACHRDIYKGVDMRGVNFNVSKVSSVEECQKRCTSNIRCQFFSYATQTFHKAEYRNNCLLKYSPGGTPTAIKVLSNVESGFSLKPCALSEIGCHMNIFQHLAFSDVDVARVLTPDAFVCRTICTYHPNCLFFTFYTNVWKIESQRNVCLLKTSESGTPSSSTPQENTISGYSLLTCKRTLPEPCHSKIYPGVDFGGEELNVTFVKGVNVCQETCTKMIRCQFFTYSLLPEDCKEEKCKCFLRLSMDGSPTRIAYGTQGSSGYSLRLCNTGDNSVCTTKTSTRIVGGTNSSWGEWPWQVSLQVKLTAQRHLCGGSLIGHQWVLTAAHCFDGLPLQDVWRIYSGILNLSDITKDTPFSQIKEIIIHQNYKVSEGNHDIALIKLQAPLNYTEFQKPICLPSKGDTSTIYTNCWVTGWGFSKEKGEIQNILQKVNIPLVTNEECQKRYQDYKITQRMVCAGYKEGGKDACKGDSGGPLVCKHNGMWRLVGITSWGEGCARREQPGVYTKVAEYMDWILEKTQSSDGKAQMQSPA
T1 sequence (P03952 whole entry partner, looked up): as the sequence (P03952 whole entry, looked up) above
Work on `Cc1cc(N)nc(C)c1CNC(=O)c1cn(Cc2ccc3c(c2)c(C)c(C)n3C)nn1` [Example 166, N-((6-amino-2,4-dimethylpyridin-3-yl)methyl)-1-((1,2,3-trimethyl-1H-indol-5-yl)methyl)-1H-1,2,3-triazole-4-carboxamide] yielded a pIC50 of 9.70. For `Cc1nc(N)cc(Cl)c1CNC(=O)c1cnn(Cc2ccc(Cn3ccccc3=O)cc2)c1` [Example 167, N-((6-Amino-4-chloro-2-methylpyridin-3-yl)methyl)-1-(4-((2-oxopyridin-1(2H)-yl)methyl)benzyl)-1H-pyrazole-4-carboxamide], the pIC50 was 9.70. `Cc1cc(N)nc(C)c1CNC(=O)c1cnn(Cc2ccc3c(c2)cc(C)n3C)c1` [Example 168, N-((6-Amino-2,4-dimethylpyridin-3-yl)methyl)-1-((1,2-dimethyl-1H-indol-5-yl)methyl)-1H-pyrazole-4-carboxamide] was tested, and the pIC50 was 10.00. `Cc1cn2cc(Cn3cc(C(=O)NCc4c(C)cc(N)nc4C)cn3)ccc2n1` [Example 169, N-((6-amino-2,4-dimethylpyridin-3-yl)methyl)-1-((2-methylimidazo[1,2-a]pyridin-6-yl)methyl)-1H-pyrazole-4-carboxamide] gave a pIC50 of 8.52. In the case of `Cc1ccc2cc(Cc3nc(C(=O)NCc4c(C)cc(N)nc4C)co3)ccc2n1` [Example 170, N-((6-amino-2,4-dimethylpyridin-3-yl)methyl)-2-((2-methylquinolin-6-yl)methyl)oxazole-4-carboxamide], the pIC50 was 8.01. With `Cc1cc(N)nc(C)c1CNC(=O)c1cnn(Cc2cc3ccsc3c(N)n2)c1` [Example 171, N-((6-Amino-2,4-dimethylpyridin-3-yl)methyl)-1-((7-aminothieno[2,3-c]pyridin-5-yl)methyl)-1H-pyrazole-4-carboxamide] the pIC50 was 7.59. In the case of `Cc1nc(N)cc(Cl)c1CNC(=O)c1cnn(Cc2ccc3ccccc3c2)c1` [Example 172, N-((6-amino-4-chloro-2-methylpyridin-3-yl)methyl)-1-(naphthalen-2-ylmethyl)-1H-pyrazole-4-carboxamide], the pIC50 was 7.22. For `Cc1cc(N)nc(C)c1CNC(=O)c1cnn(Cc2ccc3c(c2)CCS3(=O)=O)c1` [Example 174, N-((6-amino-2,4-dimethylpyridin-3-yl)methyl)-1-((1,1-dioxido-2,3-dihydrobenzo[b]thiophen-5-yl)methyl)-1H-pyrazole-4-carboxamide], the pIC50 was 7.12. `Cc1ccc2cc(Cn3cc(C(=O)NCc4c(Cl)cc(N)nc4C)nn3)ccc2n1` [Example 175, N-((6-Amino-4-chloro-2-methylpyridin-3-yl)methyl)-1-((2-methylquinolin-6-yl)methyl)-1H-1,2,3-triazole-4-carboxamide] showed a pIC50 of 7.21. `Cc1cc(N)nc(C)c1CNC(=O)c1ccn(S(=O)(=O)c2ccccc2)c1C` [Example 176, N-((6-Amino-2,4-dimethylpyridin-3-yl)methyl)-2-methyl-1-(phenylsulfonyl)-1H-pyrrole-3-carboxamide] was tested, and the pIC50 was 4.35. `Cc1cc(N)nc(C)c1CNC(=O)c1cn(Cc2ncccn2)nn1` [Example 178, N-((6-Amino-2,4-dimethylpyridin-3-yl)methyl)-1-(pyrimidin-2-ylmethyl)-1H-1,2,3-triazole-4-carboxamide] gave a pIC50 of 4.17. `Cc1cc(N)nc(C)c1CNC(=O)c1ccn(Cc2ccccc2)c1C` [Example 179, N-((6-Amino-2,4-dimethylpyridin-3-yl)methyl)-1-benzyl-2-methyl-1H-pyrrole-3-carboxamide] was tested, and the pIC50 was 4.07. With `Cc1nc(N)cc(OC(F)F)c1CNC(=O)c1cnn(Cc2ccccc2)c1` [Example 180, N-((6-Amino-4-(difluoromethoxy)-2-methylpyridin-3-yl)methyl)-1-benzyl-1H-pyrazole-4-carboxamide] the pIC50 was < 4.00. `Cc1nc(N)cc(Br)c1CNC(=O)c1cnn(Cc2ccccc2)c1` [Example 181, N-((6-Amino-4-bromo-2-methylpyridin-3-yl)methyl)-1-benzyl-1H-pyrazole-4-carboxamide] showed a pIC50 of 4.43. With `Nc1ccc(CNC(=O)c2cnn(Cc3ccccc3)c2)cn1` [Example 182, N-((6-Aminopyridin-3-yl)methyl)-1-benzyl-1H-pyrazole-4-carboxamide] the pIC50 was < 4.00. `Cc1cc(N)nc(C)c1CNC(=O)c1c(C)c(C)n(S(=O)(=O)c2ccccc2)c1C` [Example 183, N-((6-Amino-2,4-dimethylpyridin-3-yl)methyl)-2,4,5-trimethyl-1-(Phenylsulfonyl)-1H-pyrrole-3-carboxamide] was tested, and the pIC50 was < 4.00.

These compounds were tested against T1, human plasma kallikrein (assay: biochemical). Conditions: not given.
In the case of `Cc1cc(N)nc(C)c1CNC(=O)c1cnn(Cc2cccc(CO)n2)c1` [Example 99, N-((6-amino-2,4-dimethylpyridin-3-yl)methyl)-1-((6-(hydroxymethyl)pyridin-2-yl)methyl)-1H-pyrazole-4-carboxamide], the pIC50 was 5.15. Compound `Cc1cc(N)nc(C)c1CNC(=O)c1cnn(Cc2nc3ccccc3nc2C)c1` [Example 104, N-((6-amino-2,4-dimethylpyridin-3-yl)methyl)-1-((3-methylquinoxalin-2-yl)methyl)-1H-pyrazole-4-carboxamide] has a pIC50 of 6.95. `Cc1cc(N)nc(C)c1CNC(=O)c1cnn(Cc2ccc3ncc(Cl)cc3c2)c1` [Example 173, N-((6-Amino-2,4-dimethylpyridin-3-yl)methyl)-1-((3-chloroquinolin-6-yl)methyl)-1H-pyrazole-4-carboxamide] gave a pIC50 of 9.40.

Same assay, conditions: read-out: % inhibition at 100 μM
In the case of `Nc1ccc(CNC(=O)c2cnn(Cc3ccccc3)c2)cn1` [Example 182, N-((6-Aminopyridin-3-yl)methyl)-1-benzyl-1H-pyrazole-4-carboxamide], the inhibition at 100 µM was 38%. `Cc1cc(N)nc(C)c1CNC(=O)c1c(C)c(C)n(S(=O)(=O)c2ccccc2)c1C` [Example 183, N-((6-Amino-2,4-dimethylpyridin-3-yl)methyl)-2,4,5-trimethyl-1-(Phenylsulfonyl)-1H-pyrrole-3-carboxamide] gave an inhibition at 100 µM of 39%.
